Results on 6 compounds are retold here after PMC5981863 (ACS infectious diseases, 2017).

The test system of assay [1] is E. coli DH10B pBCSK, blaADC-7. The assay is described as follows: MIC, agar dilution and liquid microdilution. In kind it is cell-based, Escherichia coli.
Assay [2] has as its system E. coli DH10B pBCSK, blaADC-7, R340A. In words: MIC, agar dilution and liquid microdilution. It is filed as cell-based, Escherichia coli.
The subject of another assay is A. baumannii M9. The assay is described as follows: MIC, agar dilution and liquid microdilution. It is filed as cell-based.
For another assay, the system named is E. coli DH10B. The assay is described as follows: MIC, agar dilution and liquid microdilution. It is filed as cell-based, Escherichia coli.
The test system of assay [3] is E. coli DH10B pBCSK, blaADC-7, N213A. In words: MIC, agar dilution and liquid microdilution. In kind it is cell-based, Escherichia coli.
Assay [4] concerns E. coli DH10B pBCSK, blaADC-7, R340K. The assay is described as follows: MIC, agar dilution and liquid microdilution. In kind it is cell-based, Escherichia coli.
The next assay concerns ADC-7. In words: Thermal denaturation by circular dichroism. In kind it is binding, Acinetobacter baumannii. The conditions noted are these: ADC-7 alone Tm ≈61 °C.
For a further assay, the target named is ADC-7/R340A mutant. The assay is described as follows: Competition kinetics with nitrocefin. In kind it is biochemical, Acinetobacter baumannii.
Setting [5] is: MIC of CAZ in combination with 4 μg/mL BATSI compound.

Converted amounts (≈) assume the structure as drawn.

For the compound `O=C(Cc1cccs1)NCB(O)O` [achiral cephalothin, reference compound], the MIC worked out at 32 µg/mL in assay [1] (setting [5]); 32 µg/mL in assay [2] (setting [5]); 32 µg/mL with A. baumannii M9 (setting [5]); 0.5 µg/mL in the assay with E. coli DH10B (setting [5]); 32 µg/mL in assay [3] (setting [5]); 32 µg/mL in assay [4] (setting [5]).
On to `O=S(=O)(NCB(O)O)c1ccc(-c2nn[nH]n2)cc1C(F)(F)F` [CR192], for which, in the assay with ADC-7, the “Tm of ADC-7/compound complex” value is around 70 °C. In addition, the MIC in assay [1] (setting [5]) was found to be 2 µg/mL; in assay [2] (setting [5]) it was 0.5 µg/mL; with A. baumannii M9 (setting [5]), 8 µg/mL; in the assay with E. coli DH10B (setting [5]), 0.5 µg/mL; in assay [3] (setting [5]), 1 µg/mL; in assay [4] (setting [5]) it was 2 µg/mL. In addition, on ADC-7/R340A mutant, affinity was put at a Ki of 8.3 nM.
As to `O=C(O)c1cccc(CS(=O)(=O)NCB(O)O)c1` [CR167], the MIC in assay [1] (setting [5]) turned out to be 1 µg/mL; in assay [2] (setting [5]), 2 µg/mL; in the assay on A. baumannii M9 (setting [5]), 16 µg/mL; in the assay on E. coli DH10B (setting [5]), 0.5 µg/mL; in assay [3] (setting [5]), 4 µg/mL; in assay [4] (setting [5]) it was 4 µg/mL.
Turning to `CC(C)(O/N=C(\C(=O)N[C@@H]1C(=O)N2C(C(=O)[O-])=C(C[n+]3ccccc3)CS[C@H]12)c1csc(N)n1)C(=O)O` [CAZ, ceftazidime, reference compound], the MIC in assay [1] (Escherichia coli) is 64 µg/mL (≈ 117 µM); in assay [2] (Escherichia coli) it was 32 µg/mL (≈ 58.5 µM); in the assay on A. baumannii M9 (Acinetobacter baumannii, M9) it was above 64 µg/mL; with A. baumannii M9 (CAZ alone), above 64 µg/mL; with E. coli DH10B (Escherichia coli, DH10B), 1 µg/mL (≈ 1.83 µM); in assay [3] (Escherichia coli), 32 µg/mL (≈ 58.5 µM). Moreover, the MIC in assay [4] (Escherichia coli) was 32 µg/mL (≈ 58.5 µM).
With `O=S(=O)(NCB(O)O)c1ccc(-c2nn[nH]n2)cc1` [CR157], the minimal inhibitory concentration (MIC) was 1 µg/mL in assay [1] (setting [5]); 0.5 µg/mL in assay [2] (setting [5]); 8 µg/mL with A. baumannii M9 (setting [5]); 0.5 µg/mL in the assay on E. coli DH10B (setting [5]); 2 µg/mL in assay [3] (setting [5]); 1 µg/mL in assay [4] (setting [5]).
In the case of `O=S(=O)(NCB(O)O)c1ccc(-c2nn[nH]n2)nc1` [CR161], the MIC was found to be 0.5 µg/mL in assay [1] (setting [5]); 1 µg/mL in assay [2] (setting [5]); 0.5 µg/mL in the assay with E. coli DH10B (setting [5]); 2 µg/mL in assay [3] (setting [5]); 1 µg/mL in assay [4] (setting [5]).
